Results on six compounds are retold here after patent US10849339B2, “Beverages containing rare sugars” (The Coca-Cola Company, priority 2013, dated 2020).

Assay [1] in a line: Sweetness evaluation against sucrose solutions in citric acid buffer, two panelists (Example 8). In kind it is in vivo, human. As to the method: The sweetness level of D-tagatose and FEMA GRAS FLAVOR 4701 was evaluated against 5%, 6%, and 7% sucrose solutions. All solutions were made in citric acid/potassium citrate buffer Beverages were made and chilled at 4° C. before tasting. Two panelists evaluated the beverages. Bottles were removed from the refrigerator and about 20 ml of beverage poured in 2 oz-plastic cups. Mineral water was given to panelists for palate rinsing before tasting and between tasting different samples. Unsalted crackers were also given.

The nature of assay [2]: Sweetness evaluation against sucrose solutions in citric acid buffer (Example 7). In kind it is in vivo, human. As to the method:
4-Amino-5-(cyclohexyloxy)-2-methylquinoline-3-carboxylic acid was evaluated at 30 ppm. First, the sweetness level of the compound was evaluated against three solutions of 1%, 1.5%, and 2% sucrose. Second, the sweetness level of a solution containing D-psicose and 30 ppm amino-5-(cyclohexyloxy)-2-methylquinoline-3-carboxylic acid was evaluated against 5%, 6%, and 7% sucrose solutions.
A solution containing a blend of sucrose and D-psicose with a total sweetness equivalent to 5.5% sucrose (3.5% sucrose and 2% SE D-psicose) was also made and evaluated for its sweetness with and without addition of 30 ppm 4-amino-5-(cyclohexyloxy)-2-methylquinoline-3-carboxylic acid. All solutions were made in citric acid/potassium citrate buffer.
Beverages were kept in the refrigerator overnight and tasted cold the following day. Two panelists evaluated the beverages. Bottles were removed from the refrigerator and about 20 ml of beverage poured in 2 oz-plastic cups. Mineral water was given for thorough palate rinsing before tasting and between tasting different samples. Unsalted crackers were also given.

For assay [3] the following is noted: sucrose part of the blend; from US20130041046A; cited from earlier work.
The nature of assay [4]: Sweetness evaluation against sucrose solutions in citric acid buffer, two panelists (Example 5). In kind it is in vivo, human. As to the method:
First, the sweetness level of 2,4-dihydroxybenzoic acid was evaluated against three solutions of 1%, 2%, and 3% sucrose. Second, the sweetness level of a solution containing D-psicose and 500 ppm 2,4-dihydroxybenzoic acid was evaluated against 5%, 6.5%, and 7% sucrose solutions. All solutions were made in citric acid/potassium citrate buffer.
Beverages were kept in the refrigerator overnight and tasted cold the following day. Two panelists evaluated the beverages. Bottles were removed from the refrigerator and about 20 ml of beverage poured in 2 oz-plastic cups. Mineral water was given for palate rinsing before tasting and between tasting different samples. Unsalted crackers were also given.

Assay [5] is described as follows: Taste test with eight panelists, sweetness rated against 1%, 1.5% and 2% sucrose controls (Example 1). In kind it is in vivo, human. As to the method: Taste tests were carried out with eight panelists. Bottles were removed from the refrigerator and about 50 ml of beverage was poured into 4 oz-plastic cups. Panelists were given mineral water to rinse their mouth before tasting and between tasting different samples. Unsalted crackers were also given to panelists to eat. Taste tests were done in two rounds: a first round in which a sample of D-psicose in citric acid/potassium citrate buffer and a sample of D-psicose and Reb-C in citric acid/potassium citrate buffer were evaluated, and a second round in which a sample of D-psicose in a lemon lime carbonated soft drink and a sample of D-psicose and Reb-C in a lemon lime carbonated soft drink were evaluated. In each round, panelists were asked to e choose the sweetest sample among the pair, then rate the sweetness level against control solutions of 1%, 1.5%, and 2% sucrose in citric acid/potassium citrate buffer.

Assay [6] can be described thus: Sweetness recognition threshold concentration by taste testing. In kind it is in vivo, human. The text has this: The term “sweetness recognition threshold concentration,” as generally used herein, is the lowest known concentration of a sweet compound that is perceivable by the human sense of taste, typically around 1.0% sucrose equivalence (1.0% SE). While the particular sweetness recognition threshold concentration between sweetness enhancers can vary, generally the concentration of sweetness enhancer is below 500 ppm, such as, for example, from about 5 ppm to about 300 ppm, from about 50 ppm to about 200 ppm or from about 100 ppm to about 200 ppm.
Generally, the sweetness enhancers may enhance or potentiate the sweet taste of sweeteners without providing any noticeable sweet taste by themselves when present at or below the sweetness recognition threshold concentration of a given sweetness enhancer; however, the sweetness enhancers may themselves provide sweet taste at concentrations above their sweetness recognition threshold concentration. The sweetness recognition threshold concentration is specific for a particular enhancer and can vary based on the beverage matrix. The sweetness recognition threshold concentration can be easily determined by taste testing increasing concentrations of a given enhancer until greater than 1.0% sucrose equivalence in a given beverage matrix is detected. […]

Assay [7] can be described thus: Sucrose equivalence of D-psicose (background statement). In kind it is in vivo, human. The following applies: 2% (w/w) in a citric acid/potassium citrate matrix. The source says:
The sweetness of a non-sucrose sweetener can be measured against a sucrose reference by determining the non-sucrose sweetener's sucrose equivalence. Typically, taste panelists are trained to detect sweetness of reference sucrose solutions containing between 1-15% sucrose (w/v). Other non-sucrose sweeteners are then tasted at a series of dilutions to determine the concentration of the non-sucrose sweetener that is as sweet as a given percent sucrose reference. For example, if a 1% solution of a sweetener is as sweet as a 10% sucrose solution, then the sweetener is said to be 10 times as potent as sucrose, and has 10% sucrose equivalence.

Assay [8] is described as follows: Sweetness evaluation against sucrose solutions in citric acid buffer, three panelists (Example 6). In kind it is in vivo, human. The following applies: D-psicose (5% SE) in citric acid buffer.

For `CCCNC(=O)C(C)(C)COc1cccc2c1C(N)=NS(=O)(=O)N2` [FEMA GRAS flavor 4701], in assay [1] (15 ppm alone in citric acid buffer), the sucrose equivalence result is “less than 1.0%”.
Consider `Cc1nc2cccc(OC3CCCCC3)c2c(N)c1C(=O)O` [4-amino-5-(cyclohexyloxy)-2-methylquinoline-3-carboxylic acid], for which, in assay [2] (D-psicose part of the blend (2% SE)), the “sweetness with 30 ppm enhancer in combination with D-psicose individually” value was 3 % SE. For the same compound, the “increase of detected sucrose equivalence” value in assay [2] (added at or below its sweetness recognition threshold, b195 after b194 (D-psicose and sucrose), embodiment statement) is recorded as “about 5.0%”. Also, the “sweetness with 30 ppm enhancer in combination with sucrose individually” value in assay [3] is 7%.
Turning to `O=C(O)c1ccc(O)cc1O` [2,4-dihydroxybenzoic acid], in assay [4] (500 ppm alone in citric acid buffer), the “sweetness against 1%, 2% and 3% sucrose solutions” value is reported as < 1 % sucrose. The “increase of detected sucrose equivalence” value in assay [4] (added at or below its sweetness recognition threshold to a beverage containing D-psicose, embodiment statement) was “about 1.5%”.
For Rebaudioside C, in assay [5] (220 ppm in citric acid/potassium citrate buffer, alone), the sucrose equivalence result was “less than 1.0%”. The “detected sucrose equivalence after addition of Rebaudioside C” value in assay [5] (about 220 ppm added to lemon-lime carbonated soft drink, citric acid buffer, D-psicose about 2% by weight, embodiment statement) is “about 2.0%”. Further, the “sweetness recognition threshold concentration” value in assay [6] (in a citric acid/potassium citrate buffer) is reported as 270 ppm; in assay [6] (in cola) it was “about 345 ppm”.
For the compound `O=C(CO)[C@H](O)[C@H](O)[C@H](O)CO` [D-psicose], the “sweetness against 5% and 6.5% sucrose solutions” value in assay [4] (D-psicose solution (5% SE), citric acid buffer) was 5 % sucrose; in assay [8], 5 % sucrose. Further, in assay [5] (2% D-psicose in the absence of Rebaudioside C), the sweetness equivalence was found to be 1.2 % sucrose. Also, in assay [5] (lemon-lime carbonated soft drink, citric acid buffer, D-psicose about 2% by weight, embodiment statement), the “detected sucrose equivalence before addition of Rebaudioside C” value is on record as “about 1.2%”. Also, the sucrose equivalence result in assay [7] is listed as “about 1.26%”. Also, the “sweetness against 5% and 6% sucrose solutions” value in assay [2] (D-psicose (5% SE) in citric acid buffer) came out at 5 % sucrose.
As to `O=C(CO)[C@@H](O)[C@@H](O)[C@H](O)CO` [D-tagatose], in assay [1] (D-tagatose (5% SE) in citric acid buffer), the “sweetness against 5% and 6% sucrose solutions” value turned out to be 5 % sucrose.
